# Assay results taken from patent US20250099491A1, “PREVENTION OR TREATMENT OF CARDIOVASCULAR DISEASES WITH HIGH PENETRATION PRODRUGS OF ASPIRIN AND OTHER NSAIDS” (Techfields Inc., priority 2022, published 2025).
# Read-outs that look alike come from different tables or passages of the source.
# Tests used:
# [1] = system: rats with acute ischemia induced by Middle Cerebral Artery Occlusion (MCAO); assay: Example 15: acute ischemia induced by MCAO in rats; type: in vivo, rat; conditions: for infarct volume: Day 14 after MCAO, TTC staining, mean±SEM
# [2] = rabbit
# [3] = system: rats with acute ischemia induced by Middle Cerebral Artery Occlusion (MCAO); assay: Example 17: acute ischemia induced by MCAO in rats; type: in vivo, rat; conditions: for infarct volume: Day 14 after MCAO, TTC staining, mean±SEM
# [4] = system: rats with acute ischemia induced by Middle Cerebral Artery Occlusion (MCAO); assay: Example 18: acute ischemia induced by MCAO in rats; type: in vivo, rat; conditions: for infarct volume: Day 14 after MCAO, TTC staining, mean±SEM
# [5] = system: rats with acute ischemia induced by Middle Cerebral Artery Occlusion (MCAO); assay: Example 16: acute ischemia induced by MCAO in rats; type: in vivo, rat; conditions: for mortalities: deaths of animals in group; for infarct volume: Day 14 after MCAO, TTC staining, mean±SEM
# [6] = high dose 60 mg/kg topical bid 14 days
# [7] = high dose group compared to vehicle group
# [8] = high dose groups vs vehicle group
# [9] = low dose 15 mg/kg topical bid 14 days
# [10] = low, middle and high dose groups, Day 5-14, vs vehicle group by t-test
# [11] = middle dose 30 mg/kg topical bid 14 days
# [12] = comparators: oral 60 mg/kg bid, Edaravone 3 mg/kg i.v. q.d.
Compound,The cumulative amount of test compounds ([2]; 1 h) [mg],The cumulative amount of test compounds ([2]; 2 h) [mg],The cumulative amount of test compounds ([2]; 4 h) [mg],The cumulative amount of test compounds ([2]; 8 h) [mg],also measured
"CCN(CC)CCOC(=O)c1ccccc1O.Cl [Compound-4, 2-(diethylamino)ethyl hydroxybenzoate hydrochloride]",–,–,–,–,"infarct volume [1, 6]: 34.56%±2.563; neuroprotective effect on brain ischemic injury [1, 7]: good neuroprotective effect; neurological deficit scores [1, 8]: show differences significantly; infarct volume [1, 9]: 37.01%±2.053; body weight [1, 10]: increased; infarct volume [1, 11]: 35.77%±1.875"
"CCN(CC)CCOC(=O)c1cc(-c2ccc(F)cc2F)ccc1OC(C)=O.Cl [Compound-7, 2-(diethylamino)ethyl 2′,4′-difluoro-4-acetoxy-[1,1′-biphenyl]-3-carboxylate hydrochloride]",0.53,1.07,2.16,4.33,–
"CC(=O)Oc1ccc(-c2ccc(F)cc2F)cc1C(=O)OCC1CCCN1.Cl (stereo not drawn) [Compound-8, (pyrrolidin-2-yl)methyl 2′,4′-difluoro-4-acetoxy-[1,1′-biphenyl]-3-carboxylate hydrochloride]",0.45,0.98,2.02,4.11,"infarct volume [3, 6]: 33.53%±1.986; neuroprotective effect on brain ischemic injury [3, 7]: good neuroprotective effect; neurological deficit scores [3, 8]: show differences significantly; infarct volume [3, 9]: 37.52%±2.789; body weight [3, 10]: increased; infarct volume [3, 11]: 35.02%±2.827"
"CCN(CC)CCOC(=O)c1ccccc1OC(=O)c1ccccc1OC(C)=O.Cl [Compound-13, 2-(diethylamino)ethyl 2-(2-acetoxybenzoyl)oxybenzoate hydrochloride]",0.46,0.97,1.99,3.89,–
"CC(=O)Oc1ccccc1C(=O)Oc1ccccc1C(=O)OCC1CCCN1.Cl (stereo not drawn) [Compound-14, (pyrrolidin-2-yl)methyl 2-(2-acetoxybenzoyl)oxybenzoate hydrochloride]",0.37,0.84,1.82,3.69,"infarct volume [4, 6]: 32.98%±2.546; mortalities ([4]; high dose 60 mg/kg topical bid, deaths of animals in group): 0 of 25; neuroprotective effect on brain ischemic injury [4, 7]: good neuroprotective effect; neurological deficit scores [4, 8]: show differences significantly; infarct volume [4, 9]: 36.87%±2.265; body weight [4, 10]: increased; infarct volume [4, 11]: 35.39%±2.479"
"CC(=O)Oc1ccccc1C(=O)Oc1ccccc1C(=O)O [Compound-15, 2-(2-acetoxybenzoyl)oxybenzoic acid, reference compound]",0.000,0.000,0.001,0.001,"infarct volume ([4]; 60 mg/kg oral bid 14 days): 39.25%±2.981; reduction of infarct volumes [4, 12]: little reduction"
"CCN(CC)CCOC(=O)c1ccccc1OC(=O)c1ccccc1O.Cl [Compound-16, 2-(diethylamino)ethyl 2-(2-hydroxybenzoyl)oxybenzoate hydrochloride]",0.37,0.87,1.71,3.56,–
"Cl.O=C(Oc1ccccc1C(=O)OCC1CCCN1)c1ccccc1O (stereo not drawn) [Compound-17, (pyrrolidin-2-yl)methyl 2-(2-hydroxybenzoyl)oxybenzoate hydrochloride]",0.32,0.68,1.39,2.97,–
(pyrrolidin-2-yl)methyl acetoxybenzoate hydrochloride [Compound-2],–,–,–,–,"mortalities ([5]; high dose 60 mg/kg topical bid): 0 of 25; infarct volume [5, 9]: 33.11%±2.212; neuroprotective effect on brain ischemic injury ([5]; low, middle and high dose groups compared to vehicle group): good neuroprotective effect; neurological deficit scores ([5]; low, middle and high dose groups vs vehicle group): show differences significantly; body weight [5, 10]: increased; infarct volume [5, 11]: 27.03%±2.123; mortalities ([5]; middle dose 30 mg/kg topical bid): 0 of 25"

# Second part, led by results:
The cumulative amount of test compounds ([2]; 1 h) [mg],The cumulative amount of test compounds ([2]; 2 h) [mg],The cumulative amount of test compounds ([2]; 4 h) [mg],The cumulative amount of test compounds ([2]; 8 h) [mg],Compound,also measured
0.000,0.001,0.002,0.002,"O=C(O)c1ccccc1O [Compound-6, Salicylic acid, reference compound]","infarct volume ([1]; 60 mg/kg oral bid 14 days): 37.47%±2.856; reduction of infarct volumes [1, 12]: little reduction"
0.49,1.03,2.12,4.39,"CCN(CC)CCOC(=O)c1cc(-c2ccc(F)cc2F)ccc1O.Cl [Compound-10, 2-(diethylamino)ethyl 2′,4′-difluoro-4-hydroxyl-[1,1′-biphenyl]-3-carboxylate hydrochloride]",–
0.43,0.99,2.01,4.05,"Cl.O=C(OCC1CCCN1)c1cc(-c2ccc(F)cc2F)ccc1O (stereo not drawn) [Compound-11, (pyrrolidin-2-yl)methyl 2′,4′-difluoro-4-hydroxyl-[1,1′-biphenyl]-3-carboxylate hydrochloride]",–
0.000,0.001,0.001,0.003,"O=C(O)c1cc(-c2ccc(F)cc2F)ccc1O [Compound-12, 2′,4′-difluoro-4-hydroxyl-[1,1′-biphenyl]-3-carboxylic acid, reference compound]",–
0.000,0.000,0.001,0.001,"O=C(Oc1ccccc1C(=O)O)c1ccccc1O [Compound-18, 2-(2-hydroxybenzoyl)oxybenzoic acid, reference compound]",–
